How the values were obtained:
CYP2C9 = CYP2C9 (Homo sapiens, UniProt P11712); assay: CYP450 inhibitory activity, CYP2C9; type: in vitro ADME; details: CYP2C9 enzyme membrane, 10 μM compound, read-out: Inhibition of CYP450, % @10 μM: 2C9
Method: (§1) It is analyzed inhibitory activity assay on 5 types (CYP3A4, 2C9, 2C19, 2D6, 1A2) of 11 types CYP450, drug metabolic enzyme. Luciferin detection reagent is dissolved in buffer solution and each CYP enzyme membrane is prepared.
(§2) 4-fold concentration of the compound in 6.25 μl is prepared, and added to 6.25 μl mixture containing enzyme and proper different substrate depending on enzyme types, and kept for 10 min. After reacting with 12.5 μl NADPH regeneration reagent of CYP enzyme for 30 min, adding 25 μl luciferin detection reagent and keeping for 20 min, luminescence is measured at Fusion α.

CYP2D6 = CYP2D6 (Homo sapiens, UniProt P10635); assay: CYP450 inhibitory activity, CYP2D6; type: in vitro ADME; details: CYP2D6 enzyme membrane, 10 μM compound, read-out: Inhibition of CYP450, % @10 μM: 2D6
CYP2D6, sequence (P10635 whole entry, the tested form may be a part): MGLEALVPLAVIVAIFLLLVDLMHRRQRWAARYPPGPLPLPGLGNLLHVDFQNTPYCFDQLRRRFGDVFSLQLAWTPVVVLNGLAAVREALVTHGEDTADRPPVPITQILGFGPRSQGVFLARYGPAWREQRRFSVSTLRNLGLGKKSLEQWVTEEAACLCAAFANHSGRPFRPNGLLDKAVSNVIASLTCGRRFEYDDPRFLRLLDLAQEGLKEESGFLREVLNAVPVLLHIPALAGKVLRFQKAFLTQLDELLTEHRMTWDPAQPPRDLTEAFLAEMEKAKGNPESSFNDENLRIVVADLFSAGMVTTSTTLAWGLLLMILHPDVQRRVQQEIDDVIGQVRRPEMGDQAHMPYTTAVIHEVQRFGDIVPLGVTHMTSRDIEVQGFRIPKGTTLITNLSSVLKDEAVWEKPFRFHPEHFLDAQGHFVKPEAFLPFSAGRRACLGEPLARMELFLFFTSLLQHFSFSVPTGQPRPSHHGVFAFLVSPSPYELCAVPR
Method: Luciferin detection reagent is dissolved in buffer solution and each CYP enzyme membrane is prepared. […] After reacting with 12.5 μl NADPH regeneration reagent of CYP enzyme for 30 min, adding 25 μl luciferin detection reagent and keeping for 20 min, luminescence is measured at Fusion α.

CCR2 [1] = molecular target: T1, CCR2 (Homo sapiens, UniProt P41597); assay: CCR2 receptor protein binding assay ([125I]-MCP1); parameters: purchased Perkinelmer, USA; host or cells: CHO cell membranes; details: [125I]-MCP1 binding, CCR2 membrane expressed in CHO cell; read-out: Affinity to CCR2 receptor, IC50
T1 sequence (P41597 whole entry): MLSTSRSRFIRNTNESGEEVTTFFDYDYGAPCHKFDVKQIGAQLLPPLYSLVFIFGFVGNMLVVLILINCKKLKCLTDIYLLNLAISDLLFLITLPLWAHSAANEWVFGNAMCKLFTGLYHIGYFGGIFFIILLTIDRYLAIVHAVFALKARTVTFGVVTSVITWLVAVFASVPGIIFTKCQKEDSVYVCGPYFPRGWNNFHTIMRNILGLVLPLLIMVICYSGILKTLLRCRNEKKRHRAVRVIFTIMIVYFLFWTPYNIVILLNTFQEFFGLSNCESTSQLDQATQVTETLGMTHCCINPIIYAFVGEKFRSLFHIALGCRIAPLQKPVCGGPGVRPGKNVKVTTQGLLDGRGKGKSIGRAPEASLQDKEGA
Method: The buffer used for receptor binding assay is 50 mM Hepes (pH 7.4) containing 5 mM MgCl2, 1 mM CaCl2 and 0.5% BSA. The resultant reaction mixture in final volume 0.25 ml is prepared by adding CCR2 membrane (10 μg/well), [^125I]-MCP1 to test drug in 96-well plate on [^125I]-MCP1 binding assay and is cultivated on 27° C. for 60 min.
After incubation, reaction is terminated with fast filtering through Wallac filtermat A GF/C glass fiber filter (Wallac, Finland) pre-wetted in 0.5% PEI using Inotech harvester (Inotech) and is washed in cold 50 mM Tris-HCl (pH 7.4) buffer solution. After filter is covered with MeltiLex, it is sealed in sample bag, dried on oven, and counted using MicroBeta Plus (Wallac).
[…] is used in non-specific binding measurement.

CYP3A4 = CYP3A4 (Homo sapiens, UniProt P08684); assay: CYP450 inhibitory activity, CYP3A4; type: in vitro ADME; details: CYP3A4 enzyme membrane, 10 μM compound, read-out: Inhibition of CYP450, % @10 μM: 3A4
CYP3A4, sequence (P08684 whole entry): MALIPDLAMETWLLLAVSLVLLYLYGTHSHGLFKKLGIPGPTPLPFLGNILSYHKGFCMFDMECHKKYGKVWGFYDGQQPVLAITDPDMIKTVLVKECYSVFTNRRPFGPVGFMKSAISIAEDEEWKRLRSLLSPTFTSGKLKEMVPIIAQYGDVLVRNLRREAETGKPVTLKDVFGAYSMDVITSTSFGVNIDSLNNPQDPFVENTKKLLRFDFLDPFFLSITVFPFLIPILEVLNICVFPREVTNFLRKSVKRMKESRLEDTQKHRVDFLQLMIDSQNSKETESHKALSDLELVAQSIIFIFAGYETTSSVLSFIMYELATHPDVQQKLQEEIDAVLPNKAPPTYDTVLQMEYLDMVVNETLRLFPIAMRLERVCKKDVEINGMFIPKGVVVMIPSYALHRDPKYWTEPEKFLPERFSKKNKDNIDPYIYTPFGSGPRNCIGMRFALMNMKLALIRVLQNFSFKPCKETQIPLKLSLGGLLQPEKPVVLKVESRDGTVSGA
Method: as §1, §2

NIH 3T3 = assay: Cytotoxicity (cell viability, MTS assay), NIH 3T3; type: cell-based; details: 10 μM compound, vs control group
From the text: (§3) The MTS (3-(4,5-dimethylthiazol-2-yl)-5-(3-carboxymethoxyphenyl)-2-(4-sulfophenyl)-2H-tetrazolium, inner salt, Promega, U.S.A) assay to THP-1 cell is used to measure cytotoxicity of test compound. The MTS assay is applicable to sensitively measure viability, multiplication and activity of cell and is a method using transformation the yellow MTS into insoluble formazan by dehydrogenase of mitochondria during metabolism of viable cell. The THP-1 cell is proliferated on RPMI-1640 supplemented with 10% fetal bovine serum under 37° C., at 5% CO2 incubator. Cell density is maintained around 0.5×10^6 cells/ml. THP-1 cell is poured into 96-well plate in 1×10^6 cell/ml and treating with 1, 10 μM concentration of test compound, after 24 hours 20 μl of 317 μg/ml MTS is treated to 96-well plate. Cell viability as the he absorbance of crystalline formazan of test group to control group observed at 490 nm using ELISA reader after 1 hour is calculated by following mathematical formula 2. Cell viability(%)=(Absorbance of experimental wells)/(Absorbance of control wells))×100 [Mathematical Formula 2]
(§4) The cell cytotoxicity test is performed to many cell lines, for example HepG2, NIH3T3, CHO-K1, HEK293, in addition to THP-1 illustrated above, and test procedures related to these are same or similar as described method above.

HEK 293 = assay: Cytotoxicity (cell viability, MTS assay), HEK 293; type: cell-based; details: 10 μM compound, vs control group
From the text: as §3, §4

CCR2 [2] = molecular target: T1, CCR2; assay: Inhibitory effect on MCP-1 induced chemotaxis of THP-1 cells; type: cell-based; parameters: endogenous in cells; host or cells: THP-1; details: hMCP-1 10 ng/ml, 2 hours, read-out: Inhibition of Chemotaxis, IC50
Method: Antagonistic effect on the compound on CCR2 activity was measured by leukocyte chemotaxis assay using a proper cell line.
The used cell line is THP-1 and it is proliferated RPMI-1640 supplemented with 10% fetal calf serum under 37° C. at 5% CO2 incubator. Cell density was maintained near about 0.5×10^6 cells/ml.
Cell is allowed to have chemotaxis under 37° C., 5% CO2 incubator for 2 hours. After incubating for 2 hours, cells which is not moved from the upper side of filter are removed by wiping the filter with cotton swab.
The cells moved to lower chamber was measured using fluorescent plate reader under λexcite=480 nm, λexit=520 nm.
The chemotaxis may be described as chemotaxis coefficient, ratio between mean value of cells moved under existence of MCP-1 and mean value of cells moved under absence of chemokine.

CYP1A2 = molecular target: T2, CYP1A2 (Homo sapiens, UniProt P05177); assay: CYP450 inhibitory activity, CYP1A2; type: in vitro ADME; details: CYP1A2 enzyme membrane, 10 μM compound, read-out: Inhibition of CYP450, % @10 μM: 1A2
T2 sequence (P05177 1-516): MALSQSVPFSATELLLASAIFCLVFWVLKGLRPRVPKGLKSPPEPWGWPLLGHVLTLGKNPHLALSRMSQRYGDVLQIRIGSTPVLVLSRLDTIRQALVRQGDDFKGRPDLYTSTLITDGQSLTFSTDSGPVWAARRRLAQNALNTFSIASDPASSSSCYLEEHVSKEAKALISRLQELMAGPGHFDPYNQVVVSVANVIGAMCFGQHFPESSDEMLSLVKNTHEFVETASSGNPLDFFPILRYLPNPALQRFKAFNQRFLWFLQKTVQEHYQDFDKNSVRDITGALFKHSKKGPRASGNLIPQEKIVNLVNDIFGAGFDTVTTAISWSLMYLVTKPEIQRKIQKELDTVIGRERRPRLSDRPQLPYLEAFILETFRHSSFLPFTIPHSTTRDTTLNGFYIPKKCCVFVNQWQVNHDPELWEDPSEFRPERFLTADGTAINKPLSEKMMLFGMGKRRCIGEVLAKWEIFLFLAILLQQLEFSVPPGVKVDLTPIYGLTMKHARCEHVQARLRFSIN
Method: as §1, §2

CCR2b = molecular target: T3, CCR2b (Homo sapiens, UniProt P41597); assay: CCR2 inhibitory effect on Ca2+ flux (HEK293/CCR2b, MCP-1 stimulated); type: cell-based; details: HEK293/CCR2b cells, MCP-1 added; read-out: Blocking Ca^2+ flux, IC50
T3 construct: expressed in transfected cells; host or cells: HEK293
T3 sequence (P41597 1-360 isoform P41597-2): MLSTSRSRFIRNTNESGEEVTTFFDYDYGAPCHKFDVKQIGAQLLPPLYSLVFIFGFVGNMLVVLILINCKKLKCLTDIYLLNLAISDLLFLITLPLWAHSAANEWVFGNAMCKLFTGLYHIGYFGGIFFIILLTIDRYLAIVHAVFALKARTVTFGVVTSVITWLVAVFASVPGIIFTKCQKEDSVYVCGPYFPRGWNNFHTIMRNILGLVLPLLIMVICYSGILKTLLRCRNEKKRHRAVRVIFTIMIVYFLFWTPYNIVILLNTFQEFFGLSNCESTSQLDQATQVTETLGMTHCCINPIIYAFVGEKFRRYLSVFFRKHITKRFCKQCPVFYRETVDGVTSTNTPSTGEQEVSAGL
Method: After seeding CCR2b transformed cell (HEK293/CCR2b) on black-clear bottom plate coated with lysine, it was adapted for 24 hours and exchanged into serum free media (DMEM) and allowed to cultivate overnight. Next day After the compound is treated with Flour-4 (calcium dye, Molecular probe) and cultivated for 50 min on incubator, it is washed calcium-free buffer solution and pretreated for 10-15 min. It is added with MCP-1 and its signal is measured with FlexStation^II (Molecular device).

CYP2C19 = CYP2C19 (Homo sapiens, UniProt P33261); assay: CYP450 inhibitory activity, CYP2C19; type: in vitro ADME; details: CYP2C19 enzyme membrane, 10 μM compound, read-out: Inhibition of CYP450, % @10 μM: 2C19
CYP2C19, sequence (P33261 whole entry): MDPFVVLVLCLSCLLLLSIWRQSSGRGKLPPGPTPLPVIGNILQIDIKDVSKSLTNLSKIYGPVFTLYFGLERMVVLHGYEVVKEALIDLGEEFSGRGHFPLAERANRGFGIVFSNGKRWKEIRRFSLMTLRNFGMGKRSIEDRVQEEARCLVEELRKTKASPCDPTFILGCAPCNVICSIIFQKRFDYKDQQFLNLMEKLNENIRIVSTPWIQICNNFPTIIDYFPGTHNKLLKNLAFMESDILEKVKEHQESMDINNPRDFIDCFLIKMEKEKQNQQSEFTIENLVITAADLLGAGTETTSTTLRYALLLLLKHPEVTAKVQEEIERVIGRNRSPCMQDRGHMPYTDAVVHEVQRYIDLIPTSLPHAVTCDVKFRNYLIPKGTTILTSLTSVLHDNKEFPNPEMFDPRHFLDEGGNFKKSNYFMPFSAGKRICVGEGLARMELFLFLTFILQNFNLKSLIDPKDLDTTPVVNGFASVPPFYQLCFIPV
Method: as §1, §2

CHO-K1 = assay: Cytotoxicity (cell viability, MTS assay), CHO-K1; type: cell-based; details: 10 μM compound, vs control group
From the text: as §3, §4

HepG2 = assay: Cytotoxicity (cell viability, MTS assay), HepG2; type: cell-based; details: 10 μM compound, vs control group
From the text: as §3, §4

CYP2C9, sequence (P11712 whole entry): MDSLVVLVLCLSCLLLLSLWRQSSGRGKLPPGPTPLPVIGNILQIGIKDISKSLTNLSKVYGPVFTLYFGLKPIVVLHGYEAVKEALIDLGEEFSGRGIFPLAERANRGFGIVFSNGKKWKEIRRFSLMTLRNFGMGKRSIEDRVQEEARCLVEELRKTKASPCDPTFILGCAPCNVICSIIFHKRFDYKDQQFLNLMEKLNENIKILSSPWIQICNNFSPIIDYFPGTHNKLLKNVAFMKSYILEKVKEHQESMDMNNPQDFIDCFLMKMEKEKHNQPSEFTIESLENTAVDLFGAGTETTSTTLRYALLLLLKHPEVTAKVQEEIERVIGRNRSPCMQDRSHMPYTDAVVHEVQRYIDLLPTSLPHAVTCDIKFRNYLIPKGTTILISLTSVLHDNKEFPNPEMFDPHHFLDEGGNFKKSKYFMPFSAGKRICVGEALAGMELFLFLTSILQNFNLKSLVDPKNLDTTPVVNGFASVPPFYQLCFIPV

Row | inhibition at 30 min, 10 µM (CYP2C9) [%] | inhibition at 30 min, 10 µM (CYP2D6) [%] | IC50 (CCR2 [1]) [nM] | inhibition at 30 min, 10 µM (CYP3A4) [%] | IC50 (CCR2 [2]) [nM] | inhibition at 30 min, 10 µM (CYP1A2) [%] | IC50 (CCR2b) [nM] | inhibition at 30 min, 10 µM (CYP2C19) [%] | SMILES | Cell viability, % @10 μM: NIH 3T3 (NIH 3T3) [%] | Cell viability, % @10 μM: HEK 293 (HEK 293) [%] | Cell viability, % @10 μM: CHO-K1 (CHO-K1) [%] | Cell viability, % @10 μM: HepG2 (HepG2) [%]
1 | 23.6 | 8.5 | 990 | 6.5 | 9 | 23.5 | 18 | 14.2 | O=C(CNC(=O)c1cccc(C(F)(F)F)c1)N[C@@H]1CCN(CCN2CCN(C(=O)c3ccccc3)CC2)C1 [Example 6, N-{[1-(2-(4-benzoylpiperazine-1-yl)ethyl)-pyrrolidine-(3R)-yl-carbamoyl]-methyl}-3-trifluoromethylbenzamide] | 70.6 | 59.3 | 84.6 | 73.5
2 | 19 | -3.5 | 4440 | 28.2 | 70 | 6.6 | 120 | 9.5 | Cc1ccccc1C(=O)N1CCN(CCN2CC[C@@H](NC(=O)CNC(=O)c3cccc(C(F)(F)F)c3)C2)CC1 [Example 7, N-{[1-(2-(4-(2-methylbenzoyl)piperazine-1-yl)ethyl)-pyrrolidine-(3R)-yl-carbamoyl]-methyl}-3-trifluoromethylbenzamide] | 73.0 | 66.9 | 80.1 | 105.8

Source: patent publication US8575173B2, “Piperazinyl 3-aminopyrrolidine derivatives as a CCR2 antagonists” (Yang Ji Chemical Co., Ltd., priority 2009, dated 2013)
